Earlier results in patent US12059506B2, “Coated implantable device” (NOBIL BIO RICERCHE S.R.L., priority 2017, dated 2024).

Conditions: aqueous phase

Structure (SMILES): C[C@@H]1O[C@@H](Oc2c(-c3ccc(O)c(O)c3)oc3cc(O)cc(O)c3c2=O)[C@H](O)[C@H](O)[C@H]1O [quercitrin]
- solubility in water: insoluble
